Reference: article PMC7361110 (Antiviral Research, 2020)
Where two headings read alike, the source gives them in different places.

Test system: SARS-CoV-2
Format: cell-based, SARS-CoV-2 (BetaCoV/France/IDF0571/2020 strain)
Settings: for antiviral activity against SARS-CoV-2 (in words): single drug

SMILES: CCOC(=O)c1c(CSc2ccccc2)n(C)c2cc(Br)c(O)c(CN(C)C)c12 [Arbidol (umifenovir)]
- IC50: 3.54 µM

SMILES: COc1ccc2cc3[n+](cc2c1OC)CCc1cc2c(cc1-3)OCO2 [Berberine]
- IC50: 10.6 µM
- antiviral activity against SARS-CoV-2 (in words): dose-dependent antiviral responses

SMILES: COc1ccc([C@@H]2Sc3ccccc3N(CCN(C)C)C(=O)[C@@H]2OC(C)=O)cc1 [Diltiazem]
- antiviral activity against SARS-CoV-2 (in words): neither diltiazem nor ribavirin or favipiravir showed antiviral activity

SMILES: NC(=O)c1nc(F)c[nH]c1=O [Favipiravir, 6-fluoro-3-hydroxy-2-pyrazinecarboxamine]
- antiviral activity against SARS-CoV-2 (in words): neither diltiazem nor ribavirin or favipiravir showed antiviral activity

SMILES: Cc1cccc(C)c1OCC(=O)N[C@@H](Cc1ccccc1)[C@@H](O)C[C@H](Cc1ccccc1)NC(=O)[C@H](C(C)C)N1CCCNC1=O [Lopinavir]
- IC50: 5.25 µM

SMILES: CCC(CC)COC(=O)[C@H](C)N[P@](=O)(OC[C@H]1O[C@@](C#N)(c2ccc3c(N)ncnn23)[C@H](O)[C@@H]1O)Oc1ccccc1 [Remdesivir]
- IC50: 0.987 µM
- reduction of remdesivir IC50 (in presence of 12.5 μM berberine versus remdesivir alone): > 2 fold
- reduction of remdesivir IC50 (in presence of diltiazem (11.5 μM) versus remdesivir alone): up to 8.5 fold

SMILES: NC(=O)c1ncn([C@@H]2O[C@H](CO)[C@@H](O)[C@H]2O)n1 [Ribavirin, 1-β-D-ribofuranosyl-1,2,4-triazole-3-carboxamide]
- antiviral activity against SARS-CoV-2 (in words): neither diltiazem nor ribavirin or favipiravir showed antiviral activity
